Source: paper PMC11249646, “Small-Molecule Disruptors of the Interaction between Calcium- and Integrin-Binding Protein 1 and Integrin αIIbβ3 as Novel Antiplatelet Agents” (ACS Pharmacology & Translational Science, 2024)

biological target: T1, GST-CIB1 : F-scrambled peptide (Homo sapiens, UniProt Q99828); assay: FP scrambled-peptide counter screen, 1536-well format; format: binding; settings: Table S3, counterscreen, YES/NO call
T1 construct: made in house; host or cells: BL-21 plus RIL cells (E. coli)
T1 sequence (Q99828 1-191): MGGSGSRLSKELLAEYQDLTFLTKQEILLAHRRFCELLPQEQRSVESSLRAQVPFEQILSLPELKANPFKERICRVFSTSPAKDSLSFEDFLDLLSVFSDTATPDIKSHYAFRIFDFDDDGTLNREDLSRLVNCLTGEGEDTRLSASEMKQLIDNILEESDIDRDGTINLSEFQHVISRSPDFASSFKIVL

Confirm? (counterscreen)	SMILES
YES	Nc1nc2c(s1)C(c1ccccc1)CC(=O)N2 (stereo not shown) [NCGC00422009-03]

same assay, conditions: Table S3, counterscreen, qHTS curve class; a negative sign marks inhibitory curves

SMILES	Curve Class (counterscreen)
COc1ccc2[nH]c([S+]([O-])Cc3ncc(C)c(OC)c3C)nc2n1 (stereo not shown) [NCGC00386399-04]	-2.2
CCC(C)Cn1c(O)cc2nn(-c3nc4ccccc4s3)c(=O)c-2c1C.O=C(O)C(F)(F)F (stereo not shown) [NCGC00386995-01]	-1.2

The remaining lines, values ahead:

Curve Class (counterscreen)	SMILES
-2.1	Cc1c(Cc2ccc3ccccc3n2)c2cc(F)ccc2n1CC(=O)O [NCGC00386286-04]
-2.4	Nc1nc2c(s1)C(c1ccccc1)CC(=O)N2 (stereo not shown) [NCGC00422009-03]
-1.1	OC[C@H]1O[C@@H](Oc2ccc(O)c3cccc(O)c23)[C@H](O)[C@@H](O)[C@@H]1O [NCGC00385147-01]

same assay, conditions: Table S3, counterscreen; negative = inhibition

SMILES	Efficacy (%) (counterscreen)
COc1ccc2[nH]c([S+]([O-])Cc3ncc(C)c(OC)c3C)nc2n1 (stereo not shown) [NCGC00386399-04]	-72%
CCC(C)Cn1c(O)cc2nn(-c3nc4ccccc4s3)c(=O)c-2c1C.O=C(O)C(F)(F)F (stereo not shown) [NCGC00386995-01]	-51%

Further lines, results first:

Efficacy (%) (counterscreen)	SMILES
-123%	Cc1c(Cc2ccc3ccccc3n2)c2cc(F)ccc2n1CC(=O)O [NCGC00386286-04]
-45%	Nc1nc2c(s1)C(c1ccccc1)CC(=O)N2 (stereo not shown) [NCGC00422009-03]
-86%	OC[C@H]1O[C@@H](Oc2ccc(O)c3cccc(O)c23)[C@H](O)[C@@H](O)[C@@H]1O [NCGC00385147-01]

same assay, conditions: Table S3, counterscreen; read-out: IC50 [μM] (counterscreen)

SMILES	IC50
COc1ccc2[nH]c([S+]([O-])Cc3ncc(C)c(OC)c3C)nc2n1 (stereo not shown) [NCGC00386399-04]	44.7 µM
CCC(C)Cn1c(O)cc2nn(-c3nc4ccccc4s3)c(=O)c-2c1C.O=C(O)C(F)(F)F (stereo not shown) [NCGC00386995-01]	11.2 µM

More lines, in order of falling IC50, values ahead:

IC50	SMILES
44.7 µM	Cc1c(Cc2ccc3ccccc3n2)c2cc(F)ccc2n1CC(=O)O [NCGC00386286-04]
39.8 µM	Nc1nc2c(s1)C(c1ccccc1)CC(=O)N2 (stereo not shown) [NCGC00422009-03]
15.8 µM	OC[C@H]1O[C@@H](Oc2ccc(O)c3cccc(O)c23)[C@H](O)[C@@H](O)[C@@H]1O [NCGC00385147-01]

biological target: T2, CIB1 and αIIb interaction (CIB1-GST : F-αIIb peptide) (Homo sapiens, UniProt Q99828); assay: FP assay, 1536-well qHTS format (primary and confirmatory screen); format: binding; settings: Table S3, confirmatory screen, YES/NO call
T2 construct: made in house; host or cells: BL-21 plus RIL cells (E. coli)
T2 sequence (Q99828 1-191): T1 sequence (Q99828 1-191)

SMILES	Confirm? (confirmatory screen)
COc1ccc2[nH]c([S+]([O-])Cc3ncc(C)c(OC)c3C)nc2n1 (stereo not shown) [NCGC00386399-04]	YES
CCC(C)Cn1c(O)cc2nn(-c3nc4ccccc4s3)c(=O)c-2c1C.O=C(O)C(F)(F)F (stereo not shown) [NCGC00386995-01]	YES

Next, values leading:

Confirm? (confirmatory screen)	SMILES
YES	Cc1c(Cc2ccc3ccccc3n2)c2cc(F)ccc2n1CC(=O)O [NCGC00386286-04]
YES	OC[C@H]1O[C@@H](Oc2ccc(O)c3cccc(O)c23)[C@H](O)[C@@H](O)[C@@H]1O [NCGC00385147-01]

same assay, conditions: Table S3, confirmatory screen, qHTS curve class; a negative sign marks inhibitory curves

SMILES	Curve Class (confirmatory screen)
COc1ccc2[nH]c([S+]([O-])Cc3ncc(C)c(OC)c3C)nc2n1 (stereo not shown) [NCGC00386399-04]	-1.2
CCC(C)Cn1c(O)cc2nn(-c3nc4ccccc4s3)c(=O)c-2c1C.O=C(O)C(F)(F)F (stereo not shown) [NCGC00386995-01]	-1.4

Now from value to compound:

Curve Class (confirmatory screen)	SMILES
-2.1	Cc1c(Cc2ccc3ccccc3n2)c2cc(F)ccc2n1CC(=O)O [NCGC00386286-04]
4	Nc1nc2c(s1)C(c1ccccc1)CC(=O)N2 (stereo not shown) [NCGC00422009-03]
-1.1	OC[C@H]1O[C@@H](Oc2ccc(O)c3cccc(O)c23)[C@H](O)[C@@H](O)[C@@H]1O [NCGC00385147-01]

same assay, conditions: Table S3, confirmatory screen; negative = inhibition

SMILES	Efficacy (%) (confirmatory screen)
COc1ccc2[nH]c([S+]([O-])Cc3ncc(C)c(OC)c3C)nc2n1 (stereo not shown) [NCGC00386399-04]	-44%
CCC(C)Cn1c(O)cc2nn(-c3nc4ccccc4s3)c(=O)c-2c1C.O=C(O)C(F)(F)F (stereo not shown) [NCGC00386995-01]	-40%

Results, then the compound that gave them:

Efficacy (%) (confirmatory screen)	SMILES
-124%	Cc1c(Cc2ccc3ccccc3n2)c2cc(F)ccc2n1CC(=O)O [NCGC00386286-04]
-35%	Nc1nc2c(s1)C(c1ccccc1)CC(=O)N2 (stereo not shown) [NCGC00422009-03]
-85%	OC[C@H]1O[C@@H](Oc2ccc(O)c3cccc(O)c23)[C@H](O)[C@@H](O)[C@@H]1O [NCGC00385147-01]

same assay, conditions: Table S3, confirmatory screen; read-out: IC50 [μM] (confirmatory screen)

SMILES	IC50
COc1ccc2[nH]c([S+]([O-])Cc3ncc(C)c(OC)c3C)nc2n1 (stereo not shown) [NCGC00386399-04]	25.1 µM
CCC(C)Cn1c(O)cc2nn(-c3nc4ccccc4s3)c(=O)c-2c1C.O=C(O)C(F)(F)F (stereo not shown) [NCGC00386995-01]	35.5 µM

The remaining lines, values ahead:

IC50	SMILES
50.1 µM	Cc1c(Cc2ccc3ccccc3n2)c2cc(F)ccc2n1CC(=O)O [NCGC00386286-04]
11.2 µM	OC[C@H]1O[C@@H](Oc2ccc(O)c3cccc(O)c23)[C@H](O)[C@@H](O)[C@@H]1O [NCGC00385147-01]

same assay, conditions: qHTS FP screen hits, Table S2; negative = inhibition

Efficacy (%)	SMILES
-54%	OC[C@H]1O[C@@H](Oc2ccc(O)c3cccc(O)c23)[C@H](O)[C@@H](O)[C@@H]1O [NCGC00385147-01]
-116%	Cc1c(Cc2ccc3ccccc3n2)c2cc(F)ccc2n1CC(=O)O [NCGC00386286-04]

same assay, conditions: qHTS FP screen hits, Table S2; one class per curve where COUNT > 1; negative sign = inhibitory curve

Curve Class	SMILES
-2.2	OC[C@H]1O[C@@H](Oc2ccc(O)c3cccc(O)c23)[C@H](O)[C@@H](O)[C@@H]1O [NCGC00385147-01]
-2.1	Cc1c(Cc2ccc3ccccc3n2)c2cc(F)ccc2n1CC(=O)O [NCGC00386286-04]

same assay, conditions: qHTS FP screen hits, Table S2; read-out: IC50

IC50	SMILES
31.6 µM	OC[C@H]1O[C@@H](Oc2ccc(O)c3cccc(O)c23)[C@H](O)[C@@H](O)[C@@H]1O [NCGC00385147-01]
44.7 µM	Cc1c(Cc2ccc3ccccc3n2)c2cc(F)ccc2n1CC(=O)O [NCGC00386286-04]

same assay, conditions: qHTS primary screen hits, Table S2; negative = inhibition

Efficacy (%)	SMILES
-83%	Nc1nc2c(s1)C(c1ccccc1)CC(=O)N2 (stereo not shown) [NCGC00422009-03]

same assay, conditions: qHTS primary screen hits, Table S2; negative sign = inhibitory curve; several classes where COUNT > 1

Curve Class	SMILES
-2.2	Nc1nc2c(s1)C(c1ccccc1)CC(=O)N2 (stereo not shown) [NCGC00422009-03]

same assay, conditions: qHTS primary screen hits, Table S2; read-out: IC50

IC50	SMILES
79.4 µM	Nc1nc2c(s1)C(c1ccccc1)CC(=O)N2 (stereo not shown) [NCGC00422009-03]
